Data from publication PMC12973313 (Chemical Science, 2026).
≈ marks a conversion by molar mass, not a printed value. Like-named read-outs stand apart in the source and are kept apart here.

Columns and labels:
[1] = Kinetic solubility in PBS pH 7.4; format: physicochemical; details: upper limit 300 µM
[2] = Plasma protein binding, equilibrium dialysis; format: in vitro ADME, human
Experimental: This allows an assessment of the free drug concentration available to distribute into the tissues and interact with the target. The extent to which a compound binds to the constituents of blood plasma can influence drug distribution. […] page 10: In vitro Absorption, Distribution and Metabolism studies General note: These studies were performed by Contract Research Organisation (CRO) Pharmaron. The methodology provided within the ESI is published within the express permission of this organisation. The percentage of a compound recovered during the […] limitations such as unintended potential non-specific binding events to experimental equipment, solubility issues, etc. Protein Binding measurements in human plasma by using equilibrium dialysis: The fraction unbound in human plasma (P-KB, Ltd People's hospital of Shandong) was measured using 96-well Equilibrium Dialysis Plate (HTDialysis LLC, Gales Ferry, CT). Human plasma containing 5 μM test compound was dialysed against dialysis buffer (PBS, pH 7.4) with initial samples taken to allow for assessment of plasma stability and recovery before the plate was incubated for 6 hours at 37°C at 5% CO2. Samples were removed at 6 hours, and all samples were matrix matched and quenched with acetonitrile containing internal standard. Samples were centrifuged at 3,220g for 30 minutes to precipitate protein and enable sampling of supernatant prior to appropriate dilution for liquid chromatography mass-spectrometry (LC-MS/MS) analysis. Samples were analysed using a Shimadzu Nexera LC Binary Gradient LC-30AD (Shimadzu Inc, Kyoto), coupled to a Sciex 6500+ (AB Inc., Illinois). Separation was achieved using a XSelect HSS T3 (2.5μm, 2.1 x 50 mm) (Waters Ltd., Wilmslow) column at a temperature of 40°C and a binary mobile phase gradient at a flow rate of 0.8 mL/min. Initial LC conditions comprised of […] was ramped to 98% B at 0.5 min, held for 0.4 min and then immediately returned to initial conditions. Sample analysis was by electrospray ionisation in combined with multiple reaction monitoring in positive ionisation mode. The ionisation voltage was +5500 V. Kinetic Solubility Determination in PBS pH 7.4: The stock solutions of test and control compounds were prepared in DMSO at 10 mM. From […] These solutions were then shaken at 1100 rpm for 2 hours at 25°C. Following incubation, the samples were filtered using a vacuum manifold. The filtrate was analysed and quantified against a standard of known concentration using liquid chromatography mass- spectrometry (LC-MS/MS). Samples were analysed using a Shimadzu Nexera LC Binary Gradient LC-30AD (Shimadzu Inc, Kyoto), coupled to a Sciex 4500 mass spectrometer (AB Inc., Illinois). Separation of […] Wilmslow) at a temperature of 40°C and a binary mobile phase gradient at a flow rate of 0.8 mL/min. […] This was ramped to 98% solvent B at 0.5 minutes, held for 0.4 minutes and then immediately returned to initial conditions. Sample analysis was by electrospray ionisation combined with multiple reaction monitoring in positive ion mode. The ionspray voltage was […]. 10

[3] = Metabolic stability in liver microsomes; format: in vitro ADME, mouse
Experimental: Following this, the metabolic stability of 9 was determined against mouse, rat, and human liver microsomes. […] Within this assay the stability of the intact parent compound is monitored with respect to time, during incubation at 37 °C in the presence and absence of the co-factor NADPH – required for cytochrome p450 activity.
Metabolic Stability in Rat, Mouse and Human Liver Microsomes:
The metabolic stability of compounds at a concentration of 1 µM, in rat, mouse and human liver microsomes (BD Gentest, Franklin Lakes NJ) was measured following incubation with […]
(NADPH) at 37 °C. Aliquots of each incubation were removed at 0.5, 5, 15, 30 and 60 minutes. The reaction was stopped by the addition of cold acetonitrile containing analytical […]
Samples were then centrifuged at 3,220 g for 40 minutes. The supernatant was aliquoted and added to ultra-pure H2O in a 1:1 ratio in preparation for LC-MS/MS analysis.
Incubations were conducted in duplicate; control incubations (substituting PBS for NADPH) were conducted simultaneously.
Samples were analysed using a Shimadzu Shimadzu Nexera LC Binary Gradient LC-30AD (Shimadzu Inc, Kyoto), coupled to a Sciex 5500 mass spectrometer (AB Inc., Illinois) for rat and mouse microsomes and a Sciex 6500+ for human microsomes. Separation achieved using an XSelect HSS T3 column (2.5µm, 50 x 2.1 mm) (Waters Ltd., Wilmslow) at a temperature of 40°C and a binary mobile phase gradient at a flow rate of 0.7 mL/min. Initial […]
(0.1% formic acid in acetonitrile).
0.5 minutes and then immediately returned to initial conditions. Sample analysis was by electrospray ionisation combined with multiple reaction monitoring in positive ion mode.
The ionspray voltage was 5500V.
Bi-directional Permeability in Caco-2 Cell Line: […]

[4] = design: method as in PMID 29633393; details: DMSO-d6 1% DCM, 112 mM, 298 K; proportion NMR silent; cited from earlier work

SMILES: O=C(Nc1ccc(C(F)(F)F)cc1)N[C@H](Cc1ccccc1)C(=O)O [SSA 9]
- solubility at 2 h ([1]; phosphate buffered saline, 25 °C, pH 7.4, aqueous buffer, kinetic from dmso stock): 271 µM (≈ 95.5 µg/mL)
- Solubility in PBS pH 7.4 (μM) ([1]; 25°C, 2 hours): 271 μM
- % Bound ([2]; human plasma, 5 µM, 6 hours, 37 °C): 99.73%
- % Unbound ([2]; human plasma, 6 hours): 0.3%
- % Stability / % Remaining at 6 hr ([2]; human plasma, 6 hr): 98.85%
- % Recovery ([2]; human plasma, after 6 hours): 98.3%
- recovery at 6 h, 5 µM ([2]; human, human plasma, pH 7.4, human plasma, after 6 hours): 98.3%
- remaining at 6 h, 5 µM ([2]; human, plasma, human plasma, 6 hr, read-out: % Stability / % Remaining at 6 hr): 98.9%
- fraction unbound at 6 h, 5 µM ([2]; human, plasma, pH 7.4, human plasma, 5 µM, 6 hours, 37 °C, read-out: % Bound (converted)): 0.003
- fraction unbound at 6 h, 5 µM ([2]; human, plasma, pH 7.4, human plasma, 6 hours, read-out: % Unbound): 0.0027
- microsomal CLint at 1 µM ([3]; liver microsomes, mouse microsomes): < 7.5 µL/min/mg
- Hepatic Extraction Ratio (ER) ([3]; mouse): < 0.26
- Predicted Hepatic CLH ([3]; mouse): < 23.07 mL/min/kg
- In vitro t1/2 ([3]; mouse, 1 µM, 0.5 mg protein/mL): > 3.0797 h
- Remaining percentage (%) 0.5 min ([3]; mouse, +Cofactors): 100.00%
- Remaining percentage (%) 5 min ([3]; mouse, +Cofactors): 101.43%
- Remaining percentage (%) 15 min ([3]; mouse, +Cofactors): 97.80%
- Remaining percentage (%) 30 min ([3]; mouse, +Cofactors): 99.51%
- Remaining percentage (%) 60 min ([3]; mouse, +Cofactors): 99.55%
- Remaining percentage (%) 0.5 min ([3]; mouse, -Cofactors): 100.00%
- Remaining percentage (%) 60 min ([3]; mouse, -Cofactors): 101.52%
- half-life at 1 µM ([3]; mouse, liver microsomes, mouse, 1 µM, 0.5 mg protein/mL, read-out: In vitro t1/2): > 3.08 h
- CLint scaled at 1 µM ([3]; mouse, liver microsomes, read-out: Scale-up CLint): < 31 mL/min/kg

SMILES: O=C(O)CNC(=O)Nc1ccc(C(F)(F)F)cc1 [SSA 1]
- Q NMR (%) SSA anion [4]: 0 (ref. [30]) %
- Q NMR (%) SSA cation [4]: 0 (ref. [30]) %
